In ChEMBL document CHEMBL3992507, “Design, synthesis and evaluation of 4-aminoquinoline-purine hybrids as potential antiplasmodial agents” (Eur J Med Chem, 2017):
Calls of active or inactive are those of the source. The calls are words filed in the database; no cut-off is given here.

How the values were obtained:
Plasmodium falciparum [1] = assay: Antiplasmodial activity against chloroquine-resistant Plasmodium falciparum W2 infected in human RBC assessed as decrease in parasite viability after 72 hrs by LDH assay; assay type: functional; settings: W2, 72 h
[2] = Selectivity index, ratio of IC50 for African green monkey Vero cells to IC50 for chloroquine-resistant Plasmodium falciparum W2 infected in human RBC; assay type: toxicity; settings: read-out: Ratio IC50
Plasmodium falciparum [3] = assay: Antiplasmodial activity against chloroquine-sensitive Plasmodium falciparum D6 infected in human RBC assessed as decrease in parasite viability after 72 hrs by LDH assay; assay type: functional; settings: D6, 72 h
[4] = Selectivity index, ratio of IC50 for African green monkey Vero cells to IC50 for chloroquine-sensitive Plasmodium falciparum D6 infected in human RBC; assay type: toxicity; settings: read-out: Ratio IC50
Vero = assay: Cytotoxicity against African green monkey Vero cells after 48 hrs by neutral red uptake assay; assay type: cell-based; settings: Chlorocebus sabaeus
Heme [5] = assay: Binding affinity to monomeric heme (unknown origin) assessed as 1:1 stoichiometry for heme-compound complex at 10 uM at pH 5.6 and 7.4 by Job's plot analysis
[6] = Binding affinity to dimeric heme (unknown origin) assessed as change in absorbance band intensity at 362 nm at 10 uM at pH 5.6 by spectrophotometric titration method
Heme [7] = assay: Binding affinity to monomeric heme (unknown origin) assessed as decrease in intensity of soret band at 402 nm at pH 5.6 and 7.4 by spectrophotometric titration method
Plasmodium falciparum [8] = assay: Potency index, ratio of chloroquine IC50 to compound IC50 for chloroquine-resistant Plasmodium falciparum W2; assay type: functional

SMILES | IC50 (Plasmodium falciparum [1]) [nM] | selectivity ratio [2] | IC50 (Plasmodium falciparum [3]) [nM] | selectivity ratio [4] | IC50 (Vero) [nM] | Activity (Heme [5]) | Activity [6] | Activity (Heme [7]) | Ratio IC50 (Plasmodium falciparum [8])
Clc1ccc2c(NCCCn3cnc4c(N5CCSCC5)nc(Cl)nc43)ccnc2c1 | 1800 | > 5.6 | 446 | > 22.6 | > 10100 | – | – | – | –
CCN(CC)c1nc(Cl)nc2c1ncn2CCCNc1ccnc2cc(Cl)ccc12 | 983 | > 10.9 | 556 | > 19.3 | > 10700 | – | – | – | –
CN1CCN(c2nc(Cl)nc3c2ncn3CCCNc2ccnc3cc(Cl)ccc23)CC1 | 185 | > 54.5 | 69 | > 145 | > 10100 | – | – | – | –
Clc1ccc2c(NCCn3cnc4c(N5CCCCC5)nc(Cl)nc43)ccnc2c1 | 2450 | > 4.4 | 347 | > 31.1 | > 10800 | – | – | – | –
CCN1CCN(c2nc(Cl)nc3c2ncn3CCCNc2ccnc3cc(Cl)ccc23)CC1 | 198 | > 49.5 | 97 | > 101 | > 9830 | – | – | – | –
Clc1ccc2c(NCCCn3cnc4c(N5CCCCC5)nc(Cl)nc43)ccnc2c1 | 3760 | > 2.8 | 3330 | > 3.1 | > 10400 | – | – | – | –
CN1CCN(c2nc(Cl)nc3c2ncn3CCNc2ccnc3cc(Cl)ccc23)CC1 | 122 | > 85.4 | 84 | > 124 | > 10400 | – | – | – | –
Clc1ccc2c(NCCCn3cnc4c(N5CCN(c6ccccc6)CC5)nc(Cl)nc43)ccnc2c1 | 504 | > 17.7 | 187 | > 47.6 | > 8900 | – | – | – | –
CN(C)c1nc(Cl)nc2c1ncn2CCNc1ccnc2cc(Cl)ccc12 | 361 | > 32.8 | 254 | > 46.6 | > 11900 | – | – | – | –
C[C@@H]1CC[C@H]2[C@@H](C)C(=O)O[C@@H]3O[C@@]4(C)CC[C@@H]1[C@]32OO4 [ARTEMISININ] | – | – | 25 | – | > 16900 | – | – | – | –
Clc1ccc2c(NCCCn3cnc4c(N5CCCC5)nc(Cl)nc43)ccnc2c1 | 1760 | > 6.1 | 1080 | > 10 | > 10800 | – | – | – | –
Clc1ccc2c(NCCn3cnc4c(N5CCSCC5)nc(Cl)nc43)ccnc2c1 | 590 | 9.6 | 292 | 19.5 | 5680 | – | – | – | –
Clc1ccc2c(NCCn3cnc4c(N5CCN(c6ccccc6)CC5)nc(Cl)nc43)ccnc2c1 | 428 | 9.4 | 154 | 26.2 | 4040 | – | – | – | –
Clc1ccc2c(NCCn3cnc4c(N5CCCCCC5)nc(Cl)nc43)ccnc2c1 | 729 | > 14.3 | 419 | > 24.9 | > 10400 | – | – | – | –
CCN(CC)c1nc(Cl)nc2c1ncn2CCNc1ccnc2cc(Cl)ccc12 | 6760 | > 1.6 | 4650 | > 2.4 | > 11100 | – | – | – | –
CCN1CCN(c2nc(Cl)nc3c2ncn3CCNc2ccnc3cc(Cl)ccc23)CC1 | 80 | > 125 | 61 | > 164 | > 10100 | Active | Active | Active | 6
Clc1ccc2c(NCCn3cnc4c(N5CCOCC5)nc(Cl)nc43)ccnc2c1 | 226 | > 47.4 | 201 | > 53.4 | > 10700 | – | – | – | –
Clc1ccc2c(NCCCn3cnc4c(N5CCOCC5)nc(Cl)nc43)ccnc2c1 | 1150 | > 9.1 | 833 | > 12.5 | > 10400 | – | – | – | –
CN(C)c1nc(Cl)nc2c1ncn2CCCNc1ccnc2cc(Cl)ccc12 | 1090 | > 10.5 | 254 | > 45 | > 11500 | – | – | – | –
Clc1ccc2c(NCCCn3cnc4c(N5CCCCCC5)nc(Cl)nc43)ccnc2c1 | 2380 | > 4.3 | 1230 | > 8.3 | > 10100 | – | – | – | –
Clc1ccc2c(NCCn3cnc4c(N5CCCC5)nc(Cl)nc43)ccnc2c1 | 984 | > 11.3 | 445 | > 25 | > 11100 | – | – | – | –
CCN(CC)CCCC(C)Nc1ccnc2cc(Cl)ccc12 (configuration not stated) [CHLOROQUINE] | – | – | – | – | > 14900 | – | – | – | –
